Data taken from patent US8334316B2, “Substituted organosulfur compounds and methods of using thereof” (ACEA Biosciences, Inc., priority 2004, dated 2012).

How the values were obtained:
Assay type in all cases: cell-based
[1] = tested on: H460 (human non small cell lung cancer cell line); test: RT-CES system cell proliferation/cytotoxicity, H460; settings: NCI-H460, time point of maximum inhibition
Experimental: In operation, the devices with cells cultured in the wells are placed into a device station that is located inside an incubator. […] Under the RT-CES software control, the sensor analyzer can automatically select wells to be measured and continuously conduct impedance measurements. The impedance data from the analyzer is transferred to a computer, analyzed and processed by the integrated software.
H460 cells (human lung cancer cells) were seeded into wells of 16× or 96× microtiter plate devices (electronic plates, i.e., the plates comprise microelectrode sensor arrays in the wells of the plate) with an initial seeding density of 8000 cells per well and were pre-incubated in incubator under standard cell culture conditions for about 22 hrs. […] The cell status was monitored prior to and after the compound addition using RT-CES system. […] The cell index was normalized against the cell index values at a time point just after compound addition (about 23 hrs after cell seeding).
For the assay performed on the RT-CES system, the cells were seeded into the 16× or 96× microtiter plate devices (electronic plates, i.e., the plates comprise microelectrode sensor arrays in the wells of the plate) at the seeding density ranging from 5000 cells/well to 15,000 cells/well. The cells were incubated at 5% CO2 and 37° C. for overnight till the cell indices reached the growth phase where the cell index was between 0.8 and 1.2. Serially diluted compounds were then added to the cells followed by dynamic monitoring of the effect of the compounds on the cell proliferation and cytotoxicity. The time-dependent IC50 values for each derivative were calculated based the dose responses of cell index value at different time points after compound treatment.

[2] = tested on: OVCAR4 (human ovarian cancer cell line); test: RT-CES system cell proliferation/cytotoxicity IC50, OVCAR4; settings: OVCAR-4, time point of maximum inhibition
Text: (§1) The RT-CES system comprises three components, an electronic sensor analyzer, a device station and 16× or 96× microtiter plate devices. Microelectrode sensor array was fabricated on glass slides with lithographical microfabrication methods and the electrode-containing slides are assembled to plastic trays to form electrode-containing wells. Each 16× (or 96×) microtiter plate device used in RT-CES system comprises up to 16 (or 96) such electrode-containing wells. The device station receives the 16× or 96× microtiter plate devices and is capable of electronically switching any one of the wells to the sensor analyzer for impedance measurement. In operation, the devices with cells cultured in the wells are placed into a device station that is located inside an incubator. Electrical cables connect the device station to the sensor analyzer. Under the RT-CES software control, the sensor analyzer can automatically select wells to be measured and continuously conduct impedance measurements. The impedance data from the analyzer is transferred to a computer, analyzed and processed by the integrated software.
(§2) To quantify cell status based on the measured cell-electrode impedance, a parameter termed Cell Index is derived, according to
(§3) [formula] where Rb(f) and Rcell(f) are the frequency dependent electrode resistances (a component of impedance) without cells or with cell present, respectively. N is the number of the frequency points at which the impedance is measured. Thus, Cell Index is a quantitative measure of the status of the cells in an electrode-containing well. Under the same physiological conditions, more cells attached on to the electrodes leads to larger Rcell(f) value, leading to a larger value for Cell Index. Furthermore, for the same number of cells present in the well, a change in the cell status such as morphology will lead to a change in the Cell Index. For example, an increase in cell adhesion or cell spreading leads to larger cell-electrode contact area which will lead to an increase in Rcell(f) and thus a larger value for Cell Index. The Cell Index may also be calculated using a formula different from the one described here. Other methods for calculating the Cell Index based on impedance measurement can be found in PCT application number PCT/US04/37696, fined on Nov. 12, 2004, PCT application number PCT/US05/04481, filed on Feb. 9, 2005, U.S. patent application Ser. No. 10/987,732, filed on Nov. 12, 2004, and U.S. patent application Ser. No. 11/055,639, filed on Feb. 9, 2005.
OVCAR4 cells (human ovarian cancer cells) were seeded into wells of 16× or 96× microtiter plate devices (electronic plates, i.e., the plates comprise microelectrode sensor arrays in the wells of the plate) with an initial seeding density of 10,000 cells per well and were pre-incubated in incubator under standard cell culture conditions for about 27 hrs. Dibenzyl trisulfide solution in DMSO was added into wells following the incubation period. The cell status was monitored prior to and after the compound addition using RT-CES system. The cell indexes of different wells were between 1.4 and 1.7 just before the compound addition. […] The cell index was normalized against the cell index values at a time point just after compound addition (about 28 hrs after cell seeding).
(§4) For the assay performed on the RT-CES system, the cells were seeded into the 16× or 96× microtiter plate devices (electronic plates, i.e., the plates comprise microelectrode sensor arrays in the wells of the plate) at the seeding density ranging from 5000 cells/well to 15,000 cells/well. The cells were incubated at 5% CO2 and 37° C. for overnight till the cell indices reached the growth phase where the cell index was between 0.8 and 1.2. Serially diluted compounds were then added to the cells followed by dynamic monitoring of the effect of the compounds on the cell proliferation and cytotoxicity. […]

[3] = tested on: MCF7 (human breast cancer cell line); test: MTT assay IC50 (48 h), MCF7; settings: MCF-7, 48 hours
Experimental: (§5) In another assay format, a test compound is assayed for its cytotoxicity and/or cytostatic effect on certain cancer cell types, using endpoint assay methods. Cells in the NCI cancer cell panel may be used. Cells after a pre-incubation for certain length of time (for example, 8 hrs or 24 hrs) are incubated with a test compound at serially-diluted concentrations (for example, five 10-fold dilutions) for 24 hrs and/or 48 hrs, and/or other specific length of time. The dose dependent cytotoxicity and/or cytostatic effects of test compounds can then be tested and evaluated using the 3-(4,5-dimethylthiazol-2-yl)-2,5-diphenyltetrazolium bromide (MTT) assay method, as described by, for example, Boyd (In Principle of Practice of Oncology, Devita, J. T., Hellman, S. and Rosenberg S. A. (Eds), 1989, Vol, 3, PPO Update, No. 10).
(§6) The anticancer potency of DBTS and its derivatives were tested in 8 different types of human cancer cell lines using the RT-CES system and MTT assay. The 8 cancer cell lines were HT1080 (the human fibrosarcoma cell line), H460 (human non small cell lung cancer cell line), OVCAR4 (the human ovarian cancer cell line), MCF7 (human breast cancer cell line) MDA-MB231 (M231, the human breast cancer cell line) A2780 (the human […] cancer cell line) Jurkat (the human T cell leukemia cell line). The test DBTS derivatives include ACEA100107, ACEA100108, ACEA100109, ACEA100111, ACEA100115, ACEA100116, ACEA100117, ACEA100118, ACEA100119, and ACEA100120.
(§7) For the MTT assay, the cells were seeded into the regular 96× well plates at the cell seeding density ranging from 5000 cells/well to 15,000 cells/well. The cells were incubated at 5% CO2 and 37° C. for overnight. The derivatives were serially diluted and added to the cells. The treatment was terminated after 48 hours of incubation by adding MTT staining reagent. After 4 hours, the staining was stopped by the stop buffer and then the calorimetric measurement was carried out on a microtiter plate reader at dual wave length, 650 nm and 550 nm.

A2780 cells [4] = test: RT-CES system cell proliferation/cytotoxicity IC50, A2780; settings: Homo sapiens, time point of maximum inhibition
Text: as §1, §2, §3
A2780 cells (human […]) were seeded into wells of 16× or 96× microtiter plate devices (electronic plates, i.e., the plates comprise microelectrode sensor arrays in the wells of the plate) with an initial seeding density of 20,000 cells per well and were pre-incubated in incubator under standard cell culture conditions for about 16.4 hrs. Dibenzyl trisulfide solution in DMSO was added into wells following the incubation period. The cell status was monitored prior to and after the compound addition using RT-CES system. The cell indexes of different wells were between 2.2 and 3.7 just before the compound addition. […] The cell index was normalized against the cell index values at a time point just after compound addition (about 17.5 hrs after cell seeding).
as §4

[5] = tested on: OVCAR4 (human ovarian cancer cell line); test: MTT assay IC50 (48 h), OVCAR4; settings: OVCAR-4, OVCAR4, 48 hours
Experimental: as §5, §6, §7

[6] = tested on: H460 (human non small cell lung cancer cell line); test: MTT assay IC50 (48 h), H460; settings: NCI-H460, H460, 48 hours
Experimental: as §5, §6, §7

A2780 cells [7] = test: MTT assay IC50 (48 h), A2780; settings: Homo sapiens; A2780, 48 hours
Experimental: as §5, §6, §7

| IC50 [3] | IC50 [5] | IC50 [6] | IC50 (A2780 cells [7]) | SMILES | IC50 [1] | IC50 [2] | IC50 (A2780 cells [4]) |
| --- | --- | --- | --- | --- | --- | --- | --- |
| > 50 µM | > 50 µM | 5.4 µM | 0.8 µM | Cc1cccc(CSSSCc2cccc(C)c2)c1 [ACEA100116, di(m-methylbenzyl)trisulfide] | 12.5 µM | 0.6 µM | 0.75 µM |
| > 50 µM | > 50 µM | > 50 µM | 11.7 µM | FC(F)(F)c1cccc(CSSSCc2cccc(C(F)(F)F)c2)c1 [ACEA100117, Di(m-trifluoromethylbenzyl)trisulfide] | > 50 µM | 33.5 µM | 11.8 µM |
| > 50 µM | > 50 µM | 7.95 µM | 0.8 µM | Clc1ccc(CSSSCc2ccc(Cl)cc2)cc1 [ACEA100118, Di(p-chlorobenzyl)trisulfide] | 9.6 µM | 2.25 µM | 0.7 µM |
| > 50 µM | > 50 µM | 11.8 µM | 1.5 µM | Clc1ccccc1CSSSCc1ccccc1Cl [ACEA100115, Di(o-chlorobenzyl)trisulfide] | 23.2 µM | 0.5 µM | 0.75 µM |

| SMILES | IC50 [3] | IC50 [5] | IC50 [6] | IC50 (A2780 cells [7]) | IC50 [1] | IC50 [2] | IC50 (A2780 cells [4]) |
| --- | --- | --- | --- | --- | --- | --- | --- |
| Fc1ccc(CSSSCc2ccc(F)cc2)cc1 [ACEA100108, Di(p-fluorobenzyl)trisulfide] | > 50 µM | > 50 µM | 10.2 µM | 4.7 µM | 9.2 µM | 2 µM | 0.5 µM |
| c1ccc(CSSSCc2ccccc2)cc1 [DBTS, Dibenzyl trisulfide] | > 50 µM | > 50 µM | 14.2 µM | 1.2 µM | 11.1 µM | 1.75 µM | 0.4 µM |
